We go through one compound from patent US10323019B2, “Pyrazolylaminobenzimidazole derivatives as JAK inhibitors” (Eli Lilly and Company, priority 2016, dated 2019).

Experiment [1] has as its target T1, JAK2 (Homo sapiens (Human), UniProt O60674). The experiment in a line: JAK LanthaScreen Kinase Assay (TR-FRET), JAK2 in vitro enzyme assay. It is filed as biochemical. To be noted: 5 μM ATP. How it is done: (§1) The JAK LanthaScreen™ Kinase Assay (Invitrogen) is used to determine the ability of test compounds to inhibit JAK1, JAK2, and JAK3 kinase activity. These are TR-FRET assay formats that use long-lifetime terbium labeled antibody as the donor species and GFP-STAT1 as the acceptor species. Use the TR-FRET ratio to monitor JAK kinase activity where an increase in phosphorylation of the GFP-STAT1 results in an increase in the TR-FRET ratio. Perform the kinase reaction using a 12.5 μl reaction volume in shallow black 384-well Proxiplate®. Add reagents to obtain final reaction conditions of […], 1.76 mM Triton X-100, ATP (20.0 μM for JAK1 and JAK3 or 5 μM for JAK2) enzyme assays, 10.0 mM MgCl2, 1 mM EGTA and 0.01% Brij-35, […] GFP-STAT1, 14 nM JAK1 enzyme for JAK1, 1.0 nM for JAK2 or 2.5 nM for JAK3 enzyme assays, and 4% DMSO and serial dilutions of test compound (diluted 1:3 from 20,000 to 1 nM). Following ATP/GFP-STAT1 addition, centrifuge the assay plates for 1 minute at 1000 revolutions per minute (RPM). Allow the plates to incubate at RT for 60 minutes and then add 12.5 μl of a stopping buffer containing 20 mM EDTA, 2 nM Terbium-anti-phosphorylated Signal Transducers and Activators of Transcription [phosphorylation Tyrosine 701 amino acid] […] Use ACTIVITYBASE® 4.0 to fit the percent inhibition and ten-point compound concentration data to a four-parameter logistic equation.
In general terms: TR-FRET usually uses a lanthanide donor and a delayed reading to cut background.

The target of experiment [2] is JAK2 (Rattus norvegicus (Rat), UniProt Q62689). The experiment in a line: Rat PK/PD assay: rat whole blood ex vivo JAK2 activity (pSTAT5). Type of experiment: in vivo. To be noted: 30 mpk oral. Here is the method:
Male Wistar rats, 265-285 grams (Charles River) were used for oral gavage dosing. Dose the animals (Oral gavage) at 1.82 mL/kg (0.5 mL per 275 grams). Formulate the compounds in 1% HEC vehicle containing 0.25% Tween 80 and 0.05% antifoam with 1.1 molar equivalent of methanesulfonic acid to form an in situ salt. Formulate compounds once per week, and store at 4° C. At various time points, obtain rat whole blood via tail vain bleeding in Multivette 600 μl EDTA blood collection tubes (cat#151671100PK100, Sarstedt Inc) and use for ex vivo JAK1 and JAK2 assay. Aliquot 100 ul of blood from each rat into a 96-well round bottom plate. Stimulate whole blood by recombinant IL-6 ([…], and recombinant mouse GM-CSF (cat#415-ML, lot#, R&D) for 12 min at rt. After cytokine stimulation, add whole blood into Lyse/fix (cat#558049, lot#, BD) in minitube rack; mix well 5×. Incubate 10 min at rt. Spin minitube rack at 600 g for 4 min. Aspirate with 12-channel manifold. Transfer contents of minitube rack to 96 well round-bottom plates. Spin down the cells at 3000 rpm for 1 min and discard the supernatant. Mix the cells in the well with 100 ul ice-cold MeOH and incubated on ice for 30 min. Add 150 ul PBS+2% FCS into each well and spin down at 3000 rpm, 2 min. Wash cells with 2× of 250 ul PBS+2% FCS. For cell surface and intracellular staining, mix all antibodies and add into each well and incubate 1 hr at rt in dark. The antibodies used for staining are as following: pSTAT3, Alexa Fluor 647 (cat#4324s, lot, Cell Signaling); pSTAT5, Alexa Fluor 488 (cat#3939s, lot#, Cell Signaling), anti-rat CD4, V450 (cat#561579, lot#. BD); anti-rat CD11b, Percp eFluor710 (cat#12-0110-82, lot#, eBioscience) After staining cells with Abs, wash the plates twice with PBS+2% FCS and finally re-suspend in the same 150 ul of solution. Assess cell viability by Viability Dye 780 (cat#65-0865-14, lot#, eBioscience). Perform the cytometry assay using FORTESSA.

Experiment [3] addresses T1, JAK2. The experiment in a line: Human whole blood assay: pSTAT5 (JAK2) in monocytes, GM-CSF stimulated. To be noted: pSTAT5 in CD4Low CD33Hi monocytes. It is filed as cell-based. An excerpt:
Human Whole Blood Assays: Determination of pSTAT3 (JAK1) and pSTAT5 (JAK2) in Lymphocytes and Monocytes
Human whole blood (HWB) assays were developed and validated to determine the JAK1 and JAK2 selectivity of test compounds.
Dilute the test compounds, 10 points, (1:3) in DMSO 100% and a step down in PBS+0.1% BSA. Use Tofacitinib as a reference compound in each plate, as well as a maximum signal (stimulated wells) and a minimum signal (no stimulated wells) in order to normalize data. Obtain a pool of HWB from 4 different healthy donors. Plate the blood in a 96 well plate using a Tecan Evo 96w and incubate with test compounds for 1 h at RT. After this time of incubation, stimulate HWB with both IL6 (206-IL, R&D System) and GM-CSF (PHC2015, Life Technologies) for 15 more minutes. Add a viability dye (65-0865, eBiosicience) (1:1000) using a Tecan Evo 96w (5×mix).
The final concentrations in the assay are the following: 100 (μM for compounds, 50 μM for Tofacitinib, 0.1 μg/mL IL6, 0.038 μg/mL GM-CSF and 1% DMSO. Lyse and fix HWB using a Lyse/fix buffer (558049, Becton Dickinson) by adding 900 μL of lysis buffer using Tecan Evo 96w (mix 10× high speed). Incubate HWB in bath at 37° C. for 10 minutes. Centrifuge HWB at 500 G, 8 min and discard supernatant. Add cold MeOH using a Tecan Exo 96w in order to permeabilize cells. Incubate blood cells on ice during 30 min. After this, wash cells 2× using Staining buffer (554656, Becton Dickinson), spin at 3000 rpm, 2 min. discard supernatant, and add the following antibodies: Anti-Human CD4 PE, 1:100 (12-0048, eBioscience), Anti-Human CD33 eFluor® 450, 1:50 (48-0337, eBioscience), Phospho-STAT5 (Tyr694) (C71E5) Rabbit mAb, 1:100 (Alexa Fluor® 488 Conjugate) (3939, Cell Signaling) and Phospho-STAT3 (Tyr705) (D3A7) XP™ Rabbit mAb 1:200, (Alexa Fluor® 647 Conjugate) (4324, Cell Signaling). Incubate the antibodies for 1 h in dark at RT, then wash cells 2× and read on Cytometer Macsquant (Miltenyi Biotec). Gate the data on CD4+ (lymphocytes) and CD4Low CD33Hi (monocytes), to measure the fluorescence intensity from cells expressing pSTAT3 and pSTAT5, respectively. Analyze the data using FlowJo v 10 and then normalize the median of fluorescence versus maximum and minimum signal to determine the IC50s. Use Graph Pad Prism 5™ to represent the dose response curves.

The target in the next experiment is JAK1 (Homo sapiens (Human), UniProt P23458). The experiment in a line: JAK LanthaScreen Kinase Assay (TR-FRET), JAK1 in vitro enzyme assay. It is filed as biochemical. To be noted: 20.0 μM ATP. Here is the method:
as §1

The structures appear in SMILES notation. Read-outs that look alike come from different tables or passages of the source.

T1 sequence (O60674 whole entry): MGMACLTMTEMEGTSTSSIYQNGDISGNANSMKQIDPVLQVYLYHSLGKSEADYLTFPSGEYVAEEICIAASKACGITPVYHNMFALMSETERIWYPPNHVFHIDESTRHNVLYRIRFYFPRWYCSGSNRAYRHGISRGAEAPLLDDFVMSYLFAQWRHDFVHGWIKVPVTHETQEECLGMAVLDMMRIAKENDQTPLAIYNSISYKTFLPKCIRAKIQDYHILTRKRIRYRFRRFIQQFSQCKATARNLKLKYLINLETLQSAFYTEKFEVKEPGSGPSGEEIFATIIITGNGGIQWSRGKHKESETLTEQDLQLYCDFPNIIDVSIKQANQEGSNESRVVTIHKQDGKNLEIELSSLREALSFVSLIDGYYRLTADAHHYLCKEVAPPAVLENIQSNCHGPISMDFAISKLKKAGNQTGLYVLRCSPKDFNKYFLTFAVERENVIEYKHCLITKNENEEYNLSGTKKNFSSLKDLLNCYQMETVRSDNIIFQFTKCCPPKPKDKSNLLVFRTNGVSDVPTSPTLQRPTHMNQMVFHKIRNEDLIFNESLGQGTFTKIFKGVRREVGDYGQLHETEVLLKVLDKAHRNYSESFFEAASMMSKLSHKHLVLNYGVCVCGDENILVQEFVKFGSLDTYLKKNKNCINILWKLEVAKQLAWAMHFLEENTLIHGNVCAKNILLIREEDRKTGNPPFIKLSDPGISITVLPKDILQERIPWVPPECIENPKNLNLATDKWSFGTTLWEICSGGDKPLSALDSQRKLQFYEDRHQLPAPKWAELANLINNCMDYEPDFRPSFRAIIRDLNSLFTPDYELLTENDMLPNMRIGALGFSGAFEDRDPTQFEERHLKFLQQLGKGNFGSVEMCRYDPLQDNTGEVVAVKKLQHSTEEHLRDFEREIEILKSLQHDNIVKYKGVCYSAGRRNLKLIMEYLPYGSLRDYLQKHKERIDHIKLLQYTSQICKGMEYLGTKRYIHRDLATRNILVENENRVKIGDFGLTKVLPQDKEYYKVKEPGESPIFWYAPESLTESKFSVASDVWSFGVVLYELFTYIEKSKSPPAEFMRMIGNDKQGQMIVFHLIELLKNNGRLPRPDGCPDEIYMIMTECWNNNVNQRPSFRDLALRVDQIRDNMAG
Sequence of JAK2 (Rattus norvegicus (Rat), UniProt Q62689) (Q62689 whole entry): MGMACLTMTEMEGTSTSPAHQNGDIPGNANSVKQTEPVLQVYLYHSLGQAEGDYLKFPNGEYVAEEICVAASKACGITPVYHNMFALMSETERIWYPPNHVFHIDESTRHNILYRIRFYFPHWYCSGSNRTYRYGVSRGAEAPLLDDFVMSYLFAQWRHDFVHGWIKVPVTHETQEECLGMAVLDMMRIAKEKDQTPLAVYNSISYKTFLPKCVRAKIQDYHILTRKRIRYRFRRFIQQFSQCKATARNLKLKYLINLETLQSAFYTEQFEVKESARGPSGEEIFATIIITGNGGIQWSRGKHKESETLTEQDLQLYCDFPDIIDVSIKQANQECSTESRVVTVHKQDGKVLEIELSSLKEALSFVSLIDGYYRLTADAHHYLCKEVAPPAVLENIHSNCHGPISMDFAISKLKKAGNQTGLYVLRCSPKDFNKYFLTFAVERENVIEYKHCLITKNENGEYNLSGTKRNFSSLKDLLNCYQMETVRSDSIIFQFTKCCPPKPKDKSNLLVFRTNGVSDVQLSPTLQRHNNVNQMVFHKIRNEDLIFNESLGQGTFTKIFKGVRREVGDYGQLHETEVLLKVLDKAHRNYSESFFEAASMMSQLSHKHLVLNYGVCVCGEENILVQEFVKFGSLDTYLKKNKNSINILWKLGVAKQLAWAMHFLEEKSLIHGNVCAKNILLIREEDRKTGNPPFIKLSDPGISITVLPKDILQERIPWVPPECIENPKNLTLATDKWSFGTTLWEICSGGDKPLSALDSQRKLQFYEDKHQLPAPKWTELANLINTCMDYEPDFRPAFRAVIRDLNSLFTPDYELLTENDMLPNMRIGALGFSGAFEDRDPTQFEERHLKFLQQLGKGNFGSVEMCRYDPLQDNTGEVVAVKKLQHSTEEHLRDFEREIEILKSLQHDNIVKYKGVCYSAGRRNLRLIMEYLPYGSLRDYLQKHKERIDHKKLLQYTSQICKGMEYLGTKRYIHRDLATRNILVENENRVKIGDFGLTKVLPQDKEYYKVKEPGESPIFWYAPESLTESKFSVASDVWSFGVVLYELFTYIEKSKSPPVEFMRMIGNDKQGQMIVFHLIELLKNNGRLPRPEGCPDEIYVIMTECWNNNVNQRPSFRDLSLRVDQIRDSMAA
Sequence of JAK1 (P23458 whole entry): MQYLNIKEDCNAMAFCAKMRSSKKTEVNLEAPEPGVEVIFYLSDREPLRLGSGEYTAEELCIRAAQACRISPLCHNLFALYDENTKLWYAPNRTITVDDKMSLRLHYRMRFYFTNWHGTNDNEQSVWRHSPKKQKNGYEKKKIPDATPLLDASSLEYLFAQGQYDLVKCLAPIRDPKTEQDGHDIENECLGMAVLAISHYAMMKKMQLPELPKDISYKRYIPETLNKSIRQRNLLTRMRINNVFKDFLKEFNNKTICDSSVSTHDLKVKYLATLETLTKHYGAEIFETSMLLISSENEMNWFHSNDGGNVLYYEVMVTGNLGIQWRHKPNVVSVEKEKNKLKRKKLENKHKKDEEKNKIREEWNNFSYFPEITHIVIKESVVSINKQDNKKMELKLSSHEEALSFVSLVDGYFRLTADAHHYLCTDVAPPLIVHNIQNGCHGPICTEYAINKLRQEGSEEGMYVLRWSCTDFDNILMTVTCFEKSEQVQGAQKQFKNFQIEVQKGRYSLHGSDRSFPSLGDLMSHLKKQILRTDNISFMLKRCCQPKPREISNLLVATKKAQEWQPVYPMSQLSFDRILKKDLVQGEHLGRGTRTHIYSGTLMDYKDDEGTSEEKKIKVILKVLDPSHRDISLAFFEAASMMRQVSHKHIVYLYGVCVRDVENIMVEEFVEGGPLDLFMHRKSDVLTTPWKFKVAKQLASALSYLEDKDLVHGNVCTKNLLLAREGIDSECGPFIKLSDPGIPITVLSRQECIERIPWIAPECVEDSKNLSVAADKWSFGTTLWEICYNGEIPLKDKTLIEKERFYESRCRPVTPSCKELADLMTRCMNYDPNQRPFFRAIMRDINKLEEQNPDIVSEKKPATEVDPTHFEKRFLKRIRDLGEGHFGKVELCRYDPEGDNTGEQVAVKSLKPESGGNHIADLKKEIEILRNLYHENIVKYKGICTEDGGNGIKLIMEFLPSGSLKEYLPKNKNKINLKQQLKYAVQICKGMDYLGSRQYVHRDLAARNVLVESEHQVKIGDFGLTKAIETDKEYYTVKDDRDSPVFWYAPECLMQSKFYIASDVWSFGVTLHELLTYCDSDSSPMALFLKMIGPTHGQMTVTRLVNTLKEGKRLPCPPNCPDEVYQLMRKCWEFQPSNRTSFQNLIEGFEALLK

The IC50 is the point on the concentration scale where inhibition reaches its midpoint. The low end stands for greater potency in that assay, the high end for weaker potency in that assay. The term inhibition denotes the percentage by which the read-out fell short of the control. Consider `COc1cc(Nc2cc(O[C@H]3CC[C@@H](NC[C@@H](O)C(F)(F)F)CC3)cc3c2ncn3C)nn1C` [Example 6, (2R)-1,1,1-Trifluoro-3-{[cis-4-({4-[(5-methoxy-1-methyl-1H-pyrazol-3-yl)amino]-1-methyl-1H-benzimidazol-6-yl}oxy)cyclohexyl]amino}propan-2-ol], for which the concentration for half-maximal inhibition (IC50) was determined as 768 ± 220 nM at JAK2 [1], 20300 ± 6300 nM on JAK2 [3] and 5.25 ± 1.11 nM against JAK1. Moreover, the inhibition at 30 mg/kg is 17.7% on JAK2 [2] (2 hr post dosing, read-out: JAK2 inhibition 2 hr post dosing) and 17.4% on JAK2 [2] (7 hr post dosing, read-out: JAK2 inhibition 7 hr post dosing).
